Results reported in ChEMBL document CHEMBL5532665 (J Med Chem, 2024).
Calls of active or inactive are those of the source. No cut-off for these calls is given here.

Experiments:
[1] = target: Delta-type opioid receptor (Homo sapiens, UniProt P41143); experiment: Agonist activity at human DOR expressed in CHO-K1 cells co-expressing G-alpha15 by calcium mobilization assay relative to control; assay type: functional, cell-based; conditions: filed as agonist
[2] = system: Mus musculus; experiment: Antinociceptive activity in Kunming mouse model at 132.2 nmol/kg, sc in presence of nor-BNI by tail-flick test; assay type: functional, organism-based
[3] = system: Mus musculus; experiment: Antinociceptive activity in Kunming mouse model at 132.2 nmol/kg, sc pretreated with NALM intracerebroventricularly followed by compound administration by tail-flick test; assay type: functional, organism-based
[4] = system: Mus musculus; experiment: Antinociceptive activity in Kunming mouse model at 132.2 nmol/kg, sc in presence of beta-FNA by tail-flick test; assay type: functional, organism-based
[5] = target: T1, Kappa-type opioid receptor (Homo sapiens, UniProt P41145); experiment: Agonist activity at human KOR expressed in CHO-K1 cells co-expressing G-alpha15 upto 100 uM by calcium mobilization assay; assay type: functional, cell-based
T1 sequence (P41145 whole entry): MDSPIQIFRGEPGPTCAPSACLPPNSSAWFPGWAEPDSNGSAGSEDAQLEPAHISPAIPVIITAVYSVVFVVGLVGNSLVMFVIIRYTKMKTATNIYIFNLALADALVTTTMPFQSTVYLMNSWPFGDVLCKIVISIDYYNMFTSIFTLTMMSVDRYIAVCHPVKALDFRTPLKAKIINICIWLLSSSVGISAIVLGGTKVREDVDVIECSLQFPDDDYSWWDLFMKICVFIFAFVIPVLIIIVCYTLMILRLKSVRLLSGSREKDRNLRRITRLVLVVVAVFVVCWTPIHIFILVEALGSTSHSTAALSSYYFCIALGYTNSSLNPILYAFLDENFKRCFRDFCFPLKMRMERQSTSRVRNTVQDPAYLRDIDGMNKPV

[6] = target: Mu-type opioid receptor (Homo sapiens, UniProt P35372); experiment: Agonist activity at human MOR expressed in CHO-K1 cells co-expressing G-alpha15 by calcium mobilization assay relative to control; assay type: functional, cell-based; conditions: filed as agonist
Chain of Mu-type opioid receptor (P35372 whole entry): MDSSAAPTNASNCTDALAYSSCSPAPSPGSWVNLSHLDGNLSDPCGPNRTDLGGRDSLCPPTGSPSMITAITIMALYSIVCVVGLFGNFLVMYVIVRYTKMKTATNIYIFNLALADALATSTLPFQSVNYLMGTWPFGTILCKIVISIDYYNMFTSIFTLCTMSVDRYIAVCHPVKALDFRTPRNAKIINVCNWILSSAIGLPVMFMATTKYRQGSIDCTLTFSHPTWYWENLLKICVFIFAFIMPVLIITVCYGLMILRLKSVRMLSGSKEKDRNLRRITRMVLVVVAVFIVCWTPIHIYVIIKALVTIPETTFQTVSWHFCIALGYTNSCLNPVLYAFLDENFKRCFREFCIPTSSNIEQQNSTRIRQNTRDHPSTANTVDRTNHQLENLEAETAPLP

[7] = system: Mus musculus; experiment: Antinociceptive activity in Kunming mouse model at 132.2 nmol/kg, sc pretreated with NALM subcutaneously followed by compound administration by tail-flick test; assay type: functional, organism-based
[8] = system: Mus musculus; experiment: Antinociceptive activity in Kunming mouse model at 132.2 nmol/kg, sc in presence of NTI by tail-flick test; assay type: functional, organism-based
[9] = system: Mus musculus; experiment: Antinociceptive activity in Kunming mouse model at 1416 nmol/kg, sc in presence of beta-FNA by tail-flick test; assay type: functional, organism-based
[10] = system: Mus musculus; experiment: Antinociceptive activity in Kunming mouse model at 1416 nmol/kg, sc pretreated with NALM intracerebroventricularly followed by compound administration by tail-flick test; assay type: functional, organism-based
[11] = target: T1, Kappa-type opioid receptor; experiment: Agonist activity at human KOR expressed in CHO-K1 cells co-expressing G-alpha15 by calcium mobilization assay relative to control; assay type: functional, cell-based; conditions: filed as agonist
[12] = system: Mus musculus; experiment: Antinociceptive activity in Kunming mouse model at 1416 nmol/kg, sc in presence of nor-BNI by tail-flick test; assay type: functional, organism-based
[13] = system: Mus musculus; experiment: Antinociceptive activity in Kunming mouse model at 1416 nmol/kg, sc pretreated with NALM subcutaneously followed by compound administration by tail-flick test; assay type: functional, organism-based
[14] = system: Mus musculus; experiment: Antinociceptive activity in Kunming mouse model at 1416 nmol/kg, sc in presence of NTI by tail-flick test; assay type: functional, organism-based
[15] = system: Mus musculus; experiment: Antinociceptive activity in Kunming mouse model at 136.2 nmol/kg, sc in presence of beta-FNA by tail-flick test; assay type: functional, organism-based
[16] = system: Mus musculus; experiment: Antinociceptive activity in Kunming mouse model at 136.2 nmol/kg, sc in presence of nor-BNI by tail-flick test; assay type: functional, organism-based
[17] = system: Mus musculus; experiment: Antinociceptive activity in Kunming mouse model at 136.2 nmol/kg, sc in presence of NTI by tail-flick test; assay type: functional, organism-based
[18] = system: Mus musculus; experiment: Antinociceptive activity in Kunming mouse model at 136.2 nmol/kg, sc pretreated with NALM intracerebroventricularly followed by compound administration by tail-flick test; assay type: functional, organism-based
[19] = system: Mus musculus; experiment: Antinociceptive activity in Kunming mouse model at 136.2 nmol/kg, sc pretreated with NALM subcutaneously followed by compound administration by tail-flick test; assay type: functional, organism-based
[20] = system: Mus musculus; experiment: Antinociceptive activity in Kunming mouse model at 13.9 nmol/kg, sc in presence of beta-FNA by tail-flick test; assay type: functional, organism-based
[21] = system: Mus musculus; experiment: Antinociceptive activity in Kunming mouse model at 13.9 nmol/kg, sc pretreated with NALM intracerebroventricularly followed by compound administration by tail-flick test; assay type: functional, organism-based
[22] = system: Mus musculus; experiment: Induction of physical dependence in Kunming mouse model assessed as jumping behavior at 2.5 to 125 nmol/kg, sc administered as 7 escalating doses with 8 hr-intervals in-between followed by Nal administration post-2 hrs of last compound dose and further measured for 30 mins by withdrawal assay; assay type: functional, organism-based; conditions: dose 2.5-125 nmol/kg, time 50.5 hrs
[23] = system: Mus musculus; experiment: Antinociceptive activity in Kunming mouse model at 13.9 nmol/kg, sc in presence of nor-BNI by tail-flick test; assay type: functional, organism-based
[24] = system: Mus musculus; experiment: Antinociception activity in Kunming mouse model assessed as analgesic effect at 13.9 nmol/kg, sc administered daily measured for 8 days by tail-flick test; assay type: functional, organism-based; conditions: time 8.0 day
[25] = system: Mus musculus; experiment: Antinociceptive activity in Kunming mouse model assessed as increase in analgesic effect at 0.14 to 13.9 nmol/kg, sc measured for 180 to 360 mins by tail-flick test; assay type: functional, organism-based; conditions: dose 0.14-13.9 nmol/kg, time 180-360 min
[26] = system: Mus musculus; experiment: Rewarding affect in Kunming mouse model at 139 nmol/kg, sc pre-exposed to place conditioning for 3 days followed by compound administration and further re-exposed to place conditioning measured on day 5 by unbiased CPP method; assay type: functional, organism-based; conditions: time 2.0 day
[27] = system: Mus musculus; experiment: Antinociceptive activity in Kunming mouse model at 13.9 nmol/kg, sc in presence of NTI by tail-flick test; assay type: functional, organism-based
[28] = system: Mus musculus; experiment: Antinociceptive activity in Kunming mouse model at 13.9 nmol/kg, sc pretreated with NALM subcutaneously followed by compound administration by tail-flick test; assay type: functional, organism-based
[29] = system: Mus musculus; experiment: Rewarding affect in Kunming mouse model at 13.8 nmol/kg, sc pre-exposed to place conditioning for 3 days followed by compound administration and further re-exposed to place conditioning measured on day 5 by unbiased CPP method; assay type: functional, organism-based; conditions: time 2.0 day
[30] = system: Mus musculus; experiment: Antinociception activity in Kunming mouse model assessed as analgesic effect at 1.4 nmol/kg, sc administered daily measured for 8 days in presence of NTI by tail-flick test; assay type: functional, organism-based; conditions: time 8.0 day
[31] = system: Mus musculus; experiment: Antinociception activity in Kunming mouse model assessed as analgesic effect at 1.4 nmol/kg, sc administered daily measured for 8 days by tail-flick test; assay type: functional, organism-based; conditions: time 8.0 day
[32] = system: Mus musculus; experiment: Induction of physical dependence in Kunming mouse model assessed as jumping behavior at 0.2 to 10 nmol/kg, sc administered as 7 escalating doses with 8 hr-intervals in-between followed by Nal administration post-2 hrs of last compound dose and further measured for 30 mins by withdrawal assay; assay type: functional, organism-based; conditions: dose 0.2-10 nmol/kg, time 50.5 hrs
[33] = system: Mus musculus; experiment: Antinociceptive activity in Kunming mouse model at 1.4 nmol/kg, sc in presence of nor-BNI by tail-flick test; assay type: functional, organism-based
[34] = system: Mus musculus; experiment: Antinociceptive activity in Kunming mouse model at 1.4 nmol/kg, sc pretreated with NALM subcutaneously followed by compound administration by tail-flick test; assay type: functional, organism-based
[35] = system: Mus musculus; experiment: Antinociceptive activity in Kunming mouse model assessed as increase in analgesic effect at 0.014 to 1.4 nmol/kg, sc measured for 180 to 360 mins by tail-flick test; assay type: functional, organism-based; conditions: dose 0.014-1.4 nmol/kg, time 180-360 min
[36] = system: Mus musculus; experiment: Antinociceptive activity in Kunming mouse model at 1.4 nmol/kg, sc in presence of NTI by tail-flick test; assay type: functional, organism-based
[37] = system: Mus musculus; experiment: Antinociceptive activity in Kunming mouse model at 1.4 nmol/kg, sc pretreated with NALM intracerebroventricularly followed by compound administration by tail-flick test; assay type: functional, organism-based
[38] = system: Mus musculus; experiment: Antinociceptive activity in Kunming mouse model at 1.4 nmol/kg, sc in presence of beta-FNA by tail-flick test; assay type: functional, organism-based

Chain of Delta-type opioid receptor (P41143 whole entry): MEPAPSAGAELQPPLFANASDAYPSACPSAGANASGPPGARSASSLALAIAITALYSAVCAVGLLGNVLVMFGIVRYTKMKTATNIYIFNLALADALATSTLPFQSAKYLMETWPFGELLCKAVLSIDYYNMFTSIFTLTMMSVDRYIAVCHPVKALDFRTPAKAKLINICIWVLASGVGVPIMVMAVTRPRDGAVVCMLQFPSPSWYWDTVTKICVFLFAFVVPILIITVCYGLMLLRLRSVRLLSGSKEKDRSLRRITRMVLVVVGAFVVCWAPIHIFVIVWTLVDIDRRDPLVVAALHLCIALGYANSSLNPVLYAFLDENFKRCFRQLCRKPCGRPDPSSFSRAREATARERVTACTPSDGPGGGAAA

SMILES: NC(=O)[C@@H]1CCCN1C(=O)[C@H]1CC(=O)NCCCC[C@@H](NC(=O)[C@@H](N)Cc2ccc(O)cc2)C(=O)NCC(=O)N[C@@H](Cc2ccc3ccccc3c2)C(=O)N1
- Emax [1]: 110%
- Activity [2]: Active
- Activity [3]: Active
- Activity [4]: inactive
- Activity [5]: inactive
- Emax [6]: 98.6%
- Activity [7]: inactive
- Activity [8]: Active

SMILES: NC(=O)[C@@H]1CCCN1C(=O)[C@H]1CC(=O)NCCCC[C@@H](NC(=O)[C@@H](N)Cc2ccc(O)cc2)C(=O)NCC(=O)N[C@@H](Cc2ccccc2)C(=O)N1
- Emax [1]: 107%
- Activity [9]: inactive
- Activity [10]: Active
- Emax [11]: 103%
- Activity [12]: inactive
- Emax [6]: 109%
- Activity [13]: inactive
- Activity [14]: Active

SMILES: CC1(C)NC(=O)[C@H](NC(=O)[C@@H](N)Cc2ccc(O)cc2)CCCCNC(=O)C[C@H](C(=O)N2CCC[C@H]2C(N)=O)NC(=O)[C@H](Cc2ccccc2)NC1=O
- Emax [1]: 103%
- Activity [15]: inactive
- Activity [16]: inactive
- Activity [17]: Active
- Activity [18]: Active
- Emax [11]: 89.2%
- Activity [19]: inactive
- Emax [6]: 100%

SMILES: CN1C(=O)CNC(=O)[C@H](NC(=O)[C@@H](N)Cc2ccc(O)cc2)CCCCNC(=O)C[C@H](C(=O)N2CCC[C@H]2C(N)=O)NC(=O)[C@@H]1Cc1ccccc1
- Emax [1]: 121%
- Activity [20]: inactive
- Activity [21]: Active
- Activity [22]: inactive
- Activity [23]: inactive
- Activity [24]: Active
- Emax [11]: 93.7%
- Emax [6]: 90.7%
- Activity [25]: Active
- Activity [26]: inactive
- Activity [27]: Active
- Activity [28]: inactive

SMILES: NC(=O)[C@@H]1CCCN1C(=O)[C@H]1CC(=O)NCCCC[C@@H](NC(=O)[C@@H](N)Cc2ccc(O)cc2)C(=O)NCC(=O)N[C@@H](Cc2ccc(F)cc2)C(=O)N1
- Emax [1]: 110%
- Activity [29]: inactive
- Activity [30]: Active
- Activity [31]: Active
- Activity [32]: inactive
- Activity [33]: inactive
- Activity [34]: inactive
- Activity [35]: Active
- Emax [11]: 89.3%
- Activity [36]: Active
- Activity [37]: Active
- Emax [6]: 95.3%
- Activity [38]: inactive
